In EP1228058B1, “BENZOPYRANYL GUANIDINE DERIVATIVES, PROCESS FOR PREPARATION THEREOF, AND PHARMACEUTICAL COMPOSITIONS CONTAINING THEM” (Dongbu Hannong Chemical Co., Ltd., priority 1999, dated 2001):

Tests used:
newborn rats = experiment: Protection against hypoxic brain injury in newborn rats (proton MRS); assay type: in vivo; details: 50mg/Kg intraperitoneally 1 hr before hypoxia; proton MRS 1 day after injury
Text: Focal, hypoxic brain injury model in newborn rats are being most frequently used to study infant asphyxia, because whose maturity of brain is similar to that of human infant, and it is easy to get enough number of animals required for the determination of effects. It was reported that the lipid peak was increased in MRS (magnetic resonamce spectroscopy) by ischemic neuronal cell injury due to the destruction of cell membrane including blood-brain barrier [A. Bizzi et. al., Magnetic Resonance Imagin 14 581-592 (1996)], and also the concentration of lipid and apotosis are closely correlated to apotosis [Van der A. Toorn et al., Magnetic Resonamce in Medicine, 36 , 914-922 (1996)]. N-Acetylaspartae (NAA) and creatine (Cr) are markers of neuronal cells. Then it was confirmed that the value of lipid/NAA (N-acetylaspartae) and lipid/Cr (creatine) are correlated with the morphological change and severity of apoptosis on hypoxic brain damage.
New born rats (within 7 days, 10-15 g) were placed in hypoxic chamber for 2 hr to induce hypoxia, and test compounds were intraperitoneally injected before 1 hr of hypoxia. Proton MRS was obtained at 1 day after brain injury, then the value of lipid/NAA and lipid/Cr were determined.

ischemic retinal cells = experiment: Protection of ischemic retinal cells (raised intraocular pressure); assay type: in vivo, rats; details: vitreous injection 30 min before ischemia
Procedure: Test compounds were dissolved in DMSO to prepare stock solution (100 mM), which was diluted with physiological saline to the concentration of 100, 50 and 30 uM. Test compounds were administered by vitreous injection before 30 min of ischemia.
Adult rats were anaesthetized with ip (intra peritoneum) injection of chloral hydrate (400 mg/Kg), then the right eyes were treated with 1% tropicamide to dilate the pupils. The intraocular pressure (IOP) was raised to 160-180 mmHg, higher than normal blood pressure (140 mmHg), by cannulation of the anterior chamber connected to hydrostatic pressure device. Interruption of blood flow was confirmed ophthalmoscopically, the elevated IOP was maintained for 30 min. After 30 min of ischemia, both eyes were enucleated, and the retina was separated, of which cellular damage was observed. Number of cells in ganglion cell layer (250 x 25 um) and innernuclear layer (150 x 25 um) were counted, then calculated as a % of living cells compared to those of non-operated left eyes as a normal control.

Human LDL = experiment: Inhibition of copper-induced LDL oxidation (MDA, TBA method); assay type: biochemical; details: CuSO4 10 uM, 18 hr
Procedure: Human LDL (sigma) was dissolved in distilled water at a concentration of 1 mg/ml. LDL was dialyzed against three changes of phosphate-buffered solution before oxidation to remove EDTA (ethylenediamine tetraacetate) at 4 °C for 18 hr. EDTA-free LDL (100 ug LDL protein/ml) was incubated in EDTA-free phosphate-buffered solution at 37 °C for 18 hr in the presence of CuSO4 (10 uM) under pretreatment with the test compounds or tochopherol of which final concentrations were 10^-9, 10^-7, and 10^-5 M. Blank was incubated without CuSO^., and vehicle was used as a solvent group. Oxidation was stopped at 4 °C by addition of EDTA (200 uM).
Copper (Cu^+2) facilitates the oxidation of LDL to produce malondialdehyde (MDA), thus the lipid peroxidation was determined by MDA quantification same as the above example 5 (1). The MDA quantification was estimated by reacting samples with 2-thiobarbituric acid (TBA) and measuring the absorbance at 530 nm. 1,1,3,3-Tetramethoxy propane (Sigma) was used as a standard agent, and calculated the quantity of MDA as nmol of MDA equivalents per mg protein. The inhibitory effect of the test compounds against the lipid peroxidation was evaluated by calculating MDA reduction rate of the test compounds compared with that of the control group.

[1] = ORAC (oxygen-radical absorbance capacity) assay; assay type: biochemical; details: 1 ORAC unit = net protection by 1 uM Trolox
Procedure: The method utilized β-PE (β-phycoerythrin) as an indicator protein, and AAPH (2,2'-azobis(2-amidinopropane) dihydrochloride) as a peroxy radical generator. Reaction mixtures consisted of test compounds (10^-6M and 10^-4M), β-PE (1.76 x 10^-8M), and AAPH (3 x 10^-3 M) in 75 mM phosphate buffer (pH 7.0). A final volume of 2 ml was used in 24 well plates. Test compounds were first dissolved in acetone and then added to the reaction mixture. Once AAPH was added, the reaction was initiated at 37 °C and the fluorescence (485 nm excitation, 590 nm emission) was measured every 5 min using Fluorescence reader (FL600, Biotek Instrument). The ORAC units were calculated based on the area under the fluorescence curve of β-PE in the presence of the test compound compared to the area generated by 1 uM Trolox. 1 ORAC unit represents the net protection provided by 1 uM Trolox.

COC(OC)[C@@]1(C)Oc2ccc(N)cc2[C@@H](NC(=NC#N)NCc2ccccc2)[C@@H]1O [Example 40, (2S, 3S, 4R)-N''-cyano-N-(6 - amino-3,4-dihydro-3-hydroxy-2-methyl-2-dimethoxymethyl-2H-benzopyran-4-yl)-N'-benzylguanidine]
Lipid/Cr (newborn rats): 2.33
Lipid/NAA (newborn rats): 2.51
Living cell (%) Ganglion Cell layer (ischemic retinal cells; 30 uM): 40.7%
Living cell (%) Innernuclear layer (ischemic retinal cells; 30 uM): 54.8%
Living cell (%) Ganglion Cell layer (ischemic retinal cells; 50 uM): 60.2%
Living cell (%) Innernuclear layer (ischemic retinal cells; 50 uM): 69.8%
Living cell (%) Ganglion Cell layer (ischemic retinal cells; 100 uM): 77.9%
Living cell (%) Innernuclear layer (ischemic retinal cells; 100 uM): 82.6%
% Inhibition (Human LDL; 10^-5 M): 27.6%
% Inhibition (Human LDL; 10^-7 M, 0.1 µM): 24.3%
% Inhibition (Human LDL; 10^-9 M, 0.001 µM): 7.6%
ORAC units ([1]; Conc. 10^-4 M): 3.250 ORAC units
ORAC units ([1]; Conc. 10^-6 M): 2.047 ORAC units
